# Measurements as given in publication PMC11091072, “Targeting bacterial nickel transport with aspergillomarasmine A suppresses virulence-associated Ni-dependent enzymes” (Nature Communications, 2024).
# Values joined by “and” are separate entries in the source; they are usually repeats but may differ in a detail not shown here. Identical values can stand only once. “Also recorded” adds a separate entry of the source.
# Experiments:
# NikA = NikA (Klebsiella pneumoniae, UniProt A6TFA3); assay type: cell-based; conditions: 250 μM
# Chain of NikA (A6TFA3 entry or part of it): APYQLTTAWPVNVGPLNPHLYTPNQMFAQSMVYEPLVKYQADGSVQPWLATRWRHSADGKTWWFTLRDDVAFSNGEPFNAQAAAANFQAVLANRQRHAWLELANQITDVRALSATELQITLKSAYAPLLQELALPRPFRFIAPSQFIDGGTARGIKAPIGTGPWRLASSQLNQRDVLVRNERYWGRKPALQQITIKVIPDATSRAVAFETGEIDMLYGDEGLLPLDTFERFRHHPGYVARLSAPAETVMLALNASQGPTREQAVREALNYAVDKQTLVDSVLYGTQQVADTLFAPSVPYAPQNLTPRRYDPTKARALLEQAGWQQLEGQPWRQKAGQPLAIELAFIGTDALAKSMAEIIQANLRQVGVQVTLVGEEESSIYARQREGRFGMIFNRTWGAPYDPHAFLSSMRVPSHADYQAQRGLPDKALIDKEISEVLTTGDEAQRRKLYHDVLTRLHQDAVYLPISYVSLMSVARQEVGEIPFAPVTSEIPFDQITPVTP
# Hyd-3 = experiment: [NiFe] hydrogenase zymography; assay type: cell-based, Escherichia coli BW25113; conditions: 150 µM, E. coli, 100% H2
# Description: As described for whole-cell hydrogenase assays, E. coli BW25113 cultures (2 mL) in eight-well cell culture plates were grown under anaerobic conditions. The cells were harvested by centrifugation, resuspended in PBS, and lysed by sonication. Cell debris was removed by centrifugation (21,000 × g, 5 min), and Triton X-100 was added to a final concentration of 1%.
# [NiFe] hydrogenase zymograms were
# performed using E. coli grown in LB-glucose supplemented with 0.5 µM NiCl2 for 24h at 37 °C under anaerobic conditions. The E. coli
# Triton X-100 (5% v/v) solubilized membranes were
# mg/mL benzyl viologen and 1 mg/mL tetrazolium chloride under 100% H2 gas.
# K. pneumoniae ATCC 33495 = experiment: Galleria mellonella infection model; assay type: in vivo; conditions: for survival curve event per larva: K. pneumoniae + 7.5 μg/mL Zn-AMA, one cell per larva
# Description: (§1) The cell suspensions were mixed at an equal volume of 300 μg/mL Zn-AMA before injection. The larvae were each injected with 10 μL ([…]) of bacterial suspension with and without Zn-AMA or PBS. Ten larvae were used per group, incubated at 30 °C, and monitored on a 24-hour cycle. Fresh G. mellonella larvae were obtained from The Dragon Lair (www.thedragonlair.ca).
# [1] = tested on: S. aureus USA300 ureC::tn; experiment: Galleria mellonella infection model; assay type: in vivo; conditions: for survival curve event per larva: S. aureus ureC::Tn + 7.5 μg/mL Zn-AMA, one cell per larva
# Description: as §1
# S. aureus USA300 = experiment: Galleria mellonella infection model; assay type: in vivo; conditions: for survival curve event per larva: S. aureus + 7.5 μg/mL Zn-AMA, one cell per larva
# Description: as §1
# [2] = tested on: K. pneumoniae urease activity (whole cell); experiment: Checkerboard analysis of Zn-AMA and AHA on urease activity; assay type: cell-based, Klebsiella pneumoniae
# Description: To guide our exploration of the mode of action of Zn-AMA, we investigated whether a chemical-chemical interaction occurs with the urease inhibitor AHA. […] We subsequently performed inductively coupled plasma mass spectrometry (ICP-MS) analyses to evaluate the intracellular Ni^2+ and Zn^2+ content of K. pneumoniae.
# K. pneumoniae whole-cell urease activity was determined with artificial urine containing 0.2% (w/v) casamino acids and 0.01% (w/v) phenol red in 96-well plates. For the growth of S. aureus in artificial urine, the medium was supplemented with 10% LB. After 20–24 hours of growth, bacteria were removed using 0.45 μm filter plates, and the final A550 of the medium was measured using a plate reader.
# FIG S7 Evaluation of Zn-AMA as a direct inhibitor of urease. A) Checkerboard analysis of Zn-AMA and AHA on urease activity of K.
# pneumoniae after growth for 24 h at 37 °C artificial urine. pH is represented by the color scale determined with phenol red. […]
# [3] = tested on: K. pneumoniae urease activity (Ni2+ uptake); experiment: Competition of Zn-AMA with Ni-(L-His)2 (urease-dependent pH); assay type: cell-based, Klebsiella pneumoniae
smiles,measurement,setting,value
"N[C@@H](CN[C@@H](CN[C@@H](CC(=O)O)C(=O)O)C(=O)O)C(=O)O [AMA, aspergillomarasmine A]",NikA thermal stability in cells (CETSA),NikA,barely detectable at 60 °C
N[C@@H](CN[C@@H](CN[C@@H](CC(=O)O)C(=O)O)C(=O)O)C(=O)O.[Zn+2] [Zn-AMA],Hyd-3 activity by zymography,Hyd-3,Suppression of Hyd-3 activity
same,survival curve event per larva,K. pneumoniae ATCC 33495; day 1 post infection,1
same,survival curve event per larva,K. pneumoniae ATCC 33495; day 2 post infection,1
same,survival curve event per larva,K. pneumoniae ATCC 33495; day 3 post infection,1
same,survival curve event per larva,K. pneumoniae ATCC 33495; day 5 post infection,1
same,G. mellonella larvae survival,"K. pneumoniae ATCC 33495; K. pneumoniae infection, 7.5 mg/kg, seven days",significantly enhance the survival; also recorded: effective monotherapy
same,G. mellonella larvae survival,"[1]; S. aureus USA300 ureC::tn infection, 7.5 mg/kg",no effect on the survival; also recorded: no significant survival benefit
same,survival curve event per larva,[1]; day 1 post infection,1
same,survival curve event per larva,[1]; day 2 post infection,1
same,survival curve event per larva,[1]; day 3 post infection,1
same,survival curve event per larva,[1]; day 5 post infection,1
same,survival curve event per larva,S. aureus USA300; day 1 post infection,1
same,survival curve event per larva,S. aureus USA300; day 2 post infection,1
same,survival curve event per larva,S. aureus USA300; day 3 post infection,1
same,survival curve event per larva,S. aureus USA300; day 5 post infection,1
same,survival curve event per larva,S. aureus USA300; day 7 post infection,0
same,G. mellonella larvae survival,"S. aureus USA300; S. aureus USA300 infection, 7.5 mg/kg, seven days",significantly enhance the survival; also recorded: effective monotherapy
same,Urease-dependent pH change (pH),"[2]; Zn-AMA 0.39 μM, AHA 0 mM",8.26
same,Urease-dependent pH change (pH),"[2]; Zn-AMA 0.39 μM, AHA 0.1 mM",8.14
same,Urease-dependent pH change (pH),"[2]; Zn-AMA 0.39 μM, AHA 0.2 mM",8.05
same,Urease-dependent pH change (pH),"[2]; Zn-AMA 0.39 μM, AHA 0.4 mM",7.76
same,Urease-dependent pH change (pH),"[2]; Zn-AMA 0.39 μM, AHA 0.5 mM",8.22
same,Urease-dependent pH change (pH),"[2]; Zn-AMA 0.39 μM, AHA 0.8 mM",7.29
same,Urease-dependent pH change (pH),"[2]; Zn-AMA 0.39 μM, AHA 1.6 mM",6.70
same,Urease-dependent pH change (pH),"[2]; Zn-AMA 0.78 μM, AHA 0 mM",8.08
same,Urease-dependent pH change (pH),"[2]; Zn-AMA 0.78 μM, AHA 0.1 mM",7.95
same,Urease-dependent pH change (pH),"[2]; Zn-AMA 0.78 μM, AHA 0.2 mM",7.81
same,Urease-dependent pH change (pH),"[2]; Zn-AMA 0.78 μM, AHA 0.4 mM",7.50
same,Urease-dependent pH change (pH),"[2]; Zn-AMA 0.78 μM, AHA 0.5 mM",8.01
same,Urease-dependent pH change (pH),"[2]; Zn-AMA 0.78 μM, AHA 0.8 mM",7.03
same,Urease-dependent pH change (pH),"[2]; Zn-AMA 0.78 μM, AHA 1.6 mM",6.68
same,Urease-dependent pH change (pH),"[2]; Zn-AMA 1.56 μM, AHA 0 mM",7.83
same,Urease-dependent pH change (pH),"[2]; Zn-AMA 1.56 μM, AHA 0.1 mM",7.46
same,Urease-dependent pH change (pH),"[2]; Zn-AMA 1.56 μM, AHA 0.2 mM",7.19
same,Urease-dependent pH change (pH),"[2]; Zn-AMA 1.56 μM, AHA 0.4 mM",6.86
same,Urease-dependent pH change (pH),"[2]; Zn-AMA 1.56 μM, AHA 0.5 mM",7.51
same,Urease-dependent pH change (pH),"[2]; Zn-AMA 1.56 μM, AHA 0.8 mM",6.64
same,Urease-dependent pH change (pH),"[2]; Zn-AMA 1.56 μM, AHA 1.6 mM",6.51
same,Urease-dependent pH change (pH),"[2]; Zn-AMA 3.12 μM, AHA 0 mM",7.23
same,Urease-dependent pH change (pH),"[2]; Zn-AMA 3.12 μM, AHA 0.1 mM",6.85
same,Urease-dependent pH change (pH),"[2]; Zn-AMA 3.12 μM, AHA 0.2 mM",6.78
same,Urease-dependent pH change (pH),"[2]; Zn-AMA 3.12 μM, AHA 0.4 mM",6.74
same,Urease-dependent pH change (pH),"[2]; Zn-AMA 3.12 μM, AHA 0.5 mM",6.97
same,Urease-dependent pH change (pH),"[2]; Zn-AMA 3.12 μM, AHA 0.8 mM",6.56
same,Urease-dependent pH change (pH),"[2]; Zn-AMA 3.12 μM, AHA 1.6 mM",6.46
same,Urease-dependent pH change (pH),"[2]; Zn-AMA 6.25 μM, AHA 0 mM",6.63
same,Urease-dependent pH change (pH),"[2]; Zn-AMA 6.25 μM, AHA 0.1 mM",6.57
same,Urease-dependent pH change (pH),"[2]; Zn-AMA 6.25 μM, AHA 0.2 mM",6.55
same,Urease-dependent pH change (pH),"[2]; Zn-AMA 6.25 μM, AHA 0.4 mM",6.53
same,Urease-dependent pH change (pH),"[2]; Zn-AMA 6.25 μM, AHA 0.5 mM",6.62
same,Urease-dependent pH change (pH),"[2]; Zn-AMA 6.25 μM, AHA 0.8 mM",6.47
same,Urease-dependent pH change (pH),"[2]; Zn-AMA 6.25 μM, AHA 1.6 mM",6.42
same,Urease-dependent pH change (pH),"[2]; Zn-AMA 12.5 μM, AHA 0 mM",6.63
same,Urease-dependent pH change (pH),"[2]; Zn-AMA 12.5 μM, AHA 0.1 mM",6.46
same,Urease-dependent pH change (pH),"[2]; Zn-AMA 12.5 μM, AHA 0.2 mM",6.52
same,Urease-dependent pH change (pH),"[2]; Zn-AMA 12.5 μM, AHA 0.4 mM",6.45
same,Urease-dependent pH change (pH),"[2]; Zn-AMA 12.5 μM, AHA 0.5 mM",6.47
same,Urease-dependent pH change (pH),"[2]; Zn-AMA 12.5 μM, AHA 0.8 mM",6.43
same,Urease-dependent pH change (pH),"[2]; Zn-AMA 12.5 μM, AHA 1.6 mM",6.40
same,interaction with AHA (checkerboard),[2]; combination of Zn-AMA and AHA,synergistic
same,pH of culture (Zn-AMA v.s. L-His),[3]; Zn-AMA 6.25 μM + L-His 3.12 μM,7.4 and 7.43
same,pH of culture (Zn-AMA v.s. L-His),[3]; Zn-AMA 6.25 μM + L-His 6.25 μM,7.74 and 7.71
same,pH of culture (Zn-AMA v.s. L-His),[3]; Zn-AMA 6.25 μM + L-His 12.5 μM,7.97 and 8.09
same,pH of culture (Zn-AMA v.s. L-His),"[3]; Zn-AMA 6.25 μM, L-His 0 μM",6.53 and 6.52
same,pH of culture (Zn-AMA v.s. L-His),[3]; Zn-AMA 25 μM + L-His 3.12 μM,6.81 and 6.82
same,pH of culture (Zn-AMA v.s. L-His),[3]; Zn-AMA 25 μM + L-His 6.25 μM,7.1 and 7.22
same,pH of culture (Zn-AMA v.s. L-His),[3]; Zn-AMA 25 μM + L-His 12.5 μM,7.41 and 7.51
same,pH of culture (Zn-AMA v.s. L-His),"[3]; Zn-AMA 25 μM, L-His 0 μM",6.38 and 6.37
